Experimental data as given in patent US5627191A, “Therapeutic agents” (The Boots Company PLC, priority 1992, dated 1997).

Key:
[1] = target: T1, adrenal membrane angiotensin II receptor (Oryctolagus cuniculus, UniProt P34976); experiment: Test A: binding affinity to the adrenal membrane angiotensin II receptor in vitro; parameters: species or system rabbit (male New Zealand white); settings: rabbit adrenal membranes, 0.05 nM [^125 I]angiotensin II, 60 minutes at 25° C.; read-out: Ki from Test A
T1 construct: Aliquots of rabbit adrenal membranes containing 10-30 μg protein were incubated; from tissue; host or cells: adrenal gland membranes of male New Zealand white rabbits
T1 sequence (P34976 1-359): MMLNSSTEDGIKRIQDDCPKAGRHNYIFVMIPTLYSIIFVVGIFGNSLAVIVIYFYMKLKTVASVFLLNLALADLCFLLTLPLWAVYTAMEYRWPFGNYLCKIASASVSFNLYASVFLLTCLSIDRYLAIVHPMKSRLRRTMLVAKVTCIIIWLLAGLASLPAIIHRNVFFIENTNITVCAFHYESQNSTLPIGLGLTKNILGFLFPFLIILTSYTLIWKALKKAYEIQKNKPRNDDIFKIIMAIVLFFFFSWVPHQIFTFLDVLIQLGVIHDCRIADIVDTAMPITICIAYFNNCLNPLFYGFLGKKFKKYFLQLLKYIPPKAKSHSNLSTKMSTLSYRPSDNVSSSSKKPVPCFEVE
Protocol: In test A the binding affinity of compounds to the adrenal membrane angiotensin II receptor was determined in vitro and in tests B and C the antihypertensive effect of the compounds was measured in vivo. A detailed description of the tests follows. Test A 1) Preparation of Membranes Adrenal glands from male New Zealand white rabbits were homogenised on ice in 20 mM aqueous sodium bicarbonate solution containing 50 μM PMSF (phenylmethanesulphonyl fluoride) (2 ml/g wet weight) using a Polytron (Trademark) homogeniser for 3×15 seconds at setting 8. The homogenate was centrifuged at 900 g for 10 minutes at 4° C. and the pellet was discarded. The supernatant was recentrifuged at 30000 g for 30 minutes at 4° C., and the resulting pellet was resuspended in assay buffer (50 mM Tris-HCl, pH 7.4, containing 1 mM EDTA, 6.5 mM MgCl2, 125 mM NACl, 50 μM PMSF, 5 μg/ml pepstatin and 50 μg/ml each of leupeptin, antipain, aprotinin and chymostatin): 10 ml per g original tissue wet weight. Polyethylene glycol was added (final concentration 30%) as a cryopreservant and the membrane preparation divided into aliquots and stored at -80° C. until required. Protein was determined by a modification of the method of Lowry (Markwell et al, (1978) Anal. Biochem., 87: 206-210). 2) Binding Assay Aliquots of rabbit adrenal membranes containing 10-30 μg protein were incubated with 0.05 nM [^125 I]angiotensin II in the presence or absence of potential angiotensin II antagonists in 1 ml polyamide tubes in a total volume of 200 μI assay buffer. After incubation for 60 minutes am 25° C. the reaction was terminated by the addition of ice-cold assay buffer, and the bound and free radioactivity was separated through Skatron (Trademark) receptor-binding filters, pre-wetted with assay buffer, using a Skatron cell harvester. The filters were washed with ice-cold phosphate buffered saline, dried, and the trapped radioactivity was determined using a gamma counter. Non-specific binding, measured in the presence of 2 μM unlabelled angiotensin II, was subtracted from total binding to obtain specific binding. Radioligand binding curves were analysed using EBDA and LIGAND (Cambridge Biosoft). Values for binding affinity were obtained by nonlinear regression analysis of untransformed data. The activities of the compounds described in the Examples given hereinafter are set out below in Table A, Column 1.

[2] = Hygroscopicity observed in preparation; assay type: physicochemical; settings: dried before use by heating in vacuo

| Ki [1] | hygroscopic [2] | SMILES |
| --- | --- | --- |
| 1890 nM | appeared to be hygroscopic | CCc1nc2c(C)cc(C)nc2n1Cc1ccc(-c2ccccc2-c2c(N(C)C)c(=O)c2=O)cc1 [Example 16, 3-dimethylamino-4-[4'-(2-ethyl-5,7-dimethyl-3H-imidazo-[4,5-b]pyrid-3-ylmethyl)biphenyl-2-yl]cyclobut-3-ene-1,2-dione] |
| 21.5 nM | appeared to be hygroscopic | CCc1nc2c(C)cc(C)nc2n1Cc1ccc(-c2ccccc2-c2c(OC(C)OC(=O)C(C)(C)C)c(=O)c2=O)cc1 (stereo not shown) [Example 17, 1-[2-[4'-(2-ethyl-5,7-dimethyl-3H-imidazo[4,5-b]pyrid-3-ylmethyl)biphenyl-2-yl]-3,4-dioxocyclobut-1-en-1-yloxy]ethyl pivalate 0.22 ethyl acetate solvate] |
